Blank lines part the entries; values can stand above or below the compound they belong to. Activity calls are given as the source filed them. The calls are words filed in the database; no cut-off is given here.
Columns and labels:
[1] = target: T1, Eukaryotic elongation factor 2 kinase (Homo sapiens, UniProt O00418); assay: Inhibition of eEF2K (unknown origin)
T1 sequence (O00418 whole entry): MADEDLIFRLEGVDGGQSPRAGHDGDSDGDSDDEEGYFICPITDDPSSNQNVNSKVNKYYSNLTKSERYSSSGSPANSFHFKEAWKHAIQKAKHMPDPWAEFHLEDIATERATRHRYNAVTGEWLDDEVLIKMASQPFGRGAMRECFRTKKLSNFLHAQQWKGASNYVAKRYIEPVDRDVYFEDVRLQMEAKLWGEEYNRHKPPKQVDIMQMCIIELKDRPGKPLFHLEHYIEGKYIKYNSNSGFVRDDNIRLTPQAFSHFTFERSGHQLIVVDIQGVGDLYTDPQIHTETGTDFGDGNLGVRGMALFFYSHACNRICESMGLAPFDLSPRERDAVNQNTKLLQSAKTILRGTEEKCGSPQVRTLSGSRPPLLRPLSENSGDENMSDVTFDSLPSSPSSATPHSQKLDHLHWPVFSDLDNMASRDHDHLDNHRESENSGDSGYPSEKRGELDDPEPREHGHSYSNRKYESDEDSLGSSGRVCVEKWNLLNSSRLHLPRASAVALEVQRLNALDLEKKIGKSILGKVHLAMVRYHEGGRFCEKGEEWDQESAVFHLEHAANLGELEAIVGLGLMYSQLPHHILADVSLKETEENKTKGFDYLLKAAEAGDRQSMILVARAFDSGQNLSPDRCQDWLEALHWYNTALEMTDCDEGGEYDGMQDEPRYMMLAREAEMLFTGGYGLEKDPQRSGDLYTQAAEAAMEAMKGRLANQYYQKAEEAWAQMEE

CCRF-CEM [2] = assay: Antiproliferative activity against human CCRF-CEM cells assessed as inhibition of cell viability measured after 48 hrs by MTT assay; assay type: functional, cell-based
K562 = assay: Antiproliferative activity against human K562 cells assessed as inhibition of cell viability measured after 48 hrs by MTT assay; assay type: functional, cell-based; details: K562, 48 h
U-937 = assay: Antiproliferative activity against human U-937 cells assessed as inhibition of cell viability measured after 48 hrs by MTT assay; assay type: functional, cell-based; details: U-937, 48 h
[3] = target: T2, Eukaryotic elongation factor 2 kinase (Homo sapiens) (UniProt O00418); assay: Inhibition of eEF2K in human CCRF-CEM cells assessed as decrease in phosphorylation of eEF2 at threonine 56 residue up to 16 uM measured after 48 hrs by Western blot analysis; assay type: cell-based
T2 sequence (whole entry): T1 sequence (O00418 whole entry)

[4] = target: T2, Eukaryotic elongation factor 2 kinase (Homo sapiens); assay: Inhibition of eEF2K in human CCRF-CEM cells assessed as decrease in phosphorylation of eEF2 at threonine 58 residue up to 16 uM measured after 48 hrs by Western blot analysis; assay type: cell-based
[5] = target: T2, Eukaryotic elongation factor 2 kinase (Homo sapiens); assay: Inhibition of eEF2K in human CCRF-CEM cells assessed as decrease in phosphorylation of Akt up to 16 uM measured after 48 hrs by Western blot analysis; assay type: cell-based
[6] = target: T2, Eukaryotic elongation factor 2 kinase (Homo sapiens); assay: Inhibition of eEF2K in human CCRF-CEM cells assessed as decrease in phosphorylation of MAPK up to 16 uM measured after 48 hrs by Western blot analysis; assay type: cell-based
[7] = target: T2, Eukaryotic elongation factor 2 kinase (Homo sapiens); assay: Inhibition of eEF2K in human CCRF-CEM cells assessed as decrease in phosphorylation of mTOR up to 16 uM measured after 48 hrs by Western blot analysis; assay type: cell-based
[8] = target: T2, Eukaryotic elongation factor 2 kinase (Homo sapiens); assay: Inhibition of eEF2K in human CCRF-CEM cells assessed as decrease in MAPK protein expression level up to 16 uM measured after 48 hrs by Western blot analysis; assay type: cell-based
[9] = target: T2, Eukaryotic elongation factor 2 kinase (Homo sapiens); assay: Inhibition of eEF2K in human CCRF-CEM cells assessed as decrease in phosphorylation of eEF2 at 5 uM measured up to 48 hrs by Western blot analysis; assay type: cell-based
[10] = target: T2, Eukaryotic elongation factor 2 kinase (Homo sapiens); assay: Inhibition of eEF2K in human CCRF-CEM cells assessed as decrease in phosphorylation of Akt at 5 uM measured up to 48 hrs by Western blot analysis; assay type: cell-based
[11] = target: T2, Eukaryotic elongation factor 2 kinase (Homo sapiens); assay: Inhibition of eEF2K in human CCRF-CEM cells assessed as decrease in phosphorylation of MAPK at 5 uM measured up to 48 hrs by Western blot analysis; assay type: cell-based
[12] = target: T2, Eukaryotic elongation factor 2 kinase (Homo sapiens); assay: Inhibition of eEF2K in human CCRF-CEM cells assessed as decrease in phosphorylation of mTOR at 5 uM measured up to 48 hrs by Western blot analysis; assay type: cell-based
CCRF-CEM [13] = assay: Induction of apoptosis in human CCRF-CEM cells assessed as increase in cleaved caspase-9 level at 5 uM by Western blot analysis; assay type: functional, cell-based; details: time <= 48.0 hrs, TDE = time-dependent effect
CCRF-CEM [14] = assay: Induction of apoptosis in human CCRF-CEM cells assessed as increase in cleaved caspase-8 level at 5 uM by Western blot analysis; assay type: functional, cell-based; details: time <= 48.0 hrs, TDE = time-dependent effect
CCRF-CEM [15] = assay: Induction of apoptosis in human CCRF-CEM cells assessed as increase in cleaved caspase-3 level at 5 uM by Western blot analysis; assay type: functional, cell-based; details: time <= 48.0 hrs, TDE = time-dependent effect
CCRF-CEM [16] = assay: Induction of apoptosis in human CCRF-CEM cells assessed as increase in cleaved PARP level at 5 uM by Western blot analysis; assay type: functional, cell-based; details: time <= 48.0 hrs, TDE = time-dependent effect
CCRF-CEM [17] = assay: Induction of cell cycle arrest in human CCRF-CEM cells assessed as accumulation at G0/G1 phase at 2 uM incubated for 48 hrs by PI staining based flow cytometry analysis (reference value: 71.3%); assay type: functional
CCRF-CEM [18] = assay: Induction of cell cycle arrest in human CCRF-CEM cells assessed as accumulation at G0/G1 phase at 4 uM incubated for 48 hrs by PI/ RNaseA staining based flow cytometry analysis (reference value: 71.3%); assay type: functional
CCRF-CEM [19] = assay: Induction of cell cycle arrest in human CCRF-CEM cells assessed as accumulation at G0/G1 phase at 8 uM incubated for 48 hrs by PI/ RNaseA staining based flow cytometry analysis (reference value: 71.3%); assay type: functional
CCRF-CEM [20] = assay: Induction of apoptosis in human CCRF-CEM cells assessed as early apoptotic cells up to 8 uM measured after 48 hrs by AnnexinV-FITC/PI staining based flow cytometry method; assay type: functional
CCRF-CEM [21] = assay: Induction of apoptosis in human CCRF-CEM cells assessed as late apoptotic cells up to 8 uM measured after 48 hrs by AnnexinV-FITC/PI staining based flow cytometry method; assay type: functional

IC50 [1]: 0.032 µM
Structure (SMILES): O=C(Nc1ccc(F)cc1F)N1CCCN(Cc2ccccc2)CC1

IC50 (CCRF-CEM [2]): 6.2 µM
IC50 (K562): > 50 µM
IC50 (U-937): > 50 µM
Structure (SMILES): Nc1cc(F)ccc1NC(=O)CCNCCc1c[nH]c2ccccc12

IC50 (CCRF-CEM [2]): > 50 µM
IC50 (K562): 39.2 µM
IC50 (U-937): > 50 µM
Structure (SMILES): COc1ccc2[nH]cc(CCNCC(C)C(=O)Nc3ccc(C)cc3N)c2c1 (racemic)

IC50 [1]: 0.23 µM
Structure (SMILES): O=C1CC(c2ccccc2)c2cccc(N3CCCC3)c21 (stereo unspecified)

IC50 (CCRF-CEM [2]): 1.63 µM
IC50 (K562): 3.54 µM
IC50 (U-937): 2.12 µM
inhibition [3]: Active
inhibition [4]: Active
inhibition [5]: Active
inhibition [6]: Active
inhibition [7]: Active
inhibition [8]: Active
inhibition [9]: Active
inhibition [10]: Active
inhibition [11]: Active
inhibition [12]: Active
Structure (SMILES): O=C(CCNCCc1c[nH]c2ccc(Cl)cc12)Nc1ccccc1
Activity (CCRF-CEM [13]): Tde
Activity (CCRF-CEM [14]): Tde
Activity (CCRF-CEM [15]): Tde
Activity (CCRF-CEM [16]): Tde
Activity (CCRF-CEM [17]): 80.8%
Activity (CCRF-CEM [18]): 89.7%
Activity (CCRF-CEM [19]): 92.3%
Activity (CCRF-CEM [20]): 0.021%
Activity (CCRF-CEM [21]): 23.1%

IC50 (CCRF-CEM [2]): 4.45 µM
IC50 (K562): 33.8 µM
IC50 (U-937): > 50 µM
Structure (SMILES): CC(CNCCc1c[nH]c2ccccc12)C(=O)Nc1ccccc1N (racemic)

IC50 (CCRF-CEM [2]): > 50 µM
IC50 (K562): > 50 µM
IC50 (U-937): > 50 µM
Structure (SMILES): Cc1ccc(NC(=O)CCNCCc2c[nH]c3ccccc23)c(N)c1

IC50 (CCRF-CEM [2]): > 50 µM
IC50 (K562): > 50 µM
IC50 (U-937): > 50 µM
Structure (SMILES): COc1ccc2[nH]cc(CCNCCC(=O)Nc3ccc(C)cc3N)c2c1

The remaining lines, values behind:

Structure (SMILES): COc1ccc2[nH]cc(CCNCCC(=O)Nc3ccccc3)c2c1
IC50 (CCRF-CEM [2]): 9.79 µM
IC50 (K562): 7.83 µM
IC50 (U-937): 15.2 µM

Structure (SMILES): CC(CNCCc1c[nH]c2ccccc12)C(=O)Nc1ccccc1 (racemic)
IC50 (CCRF-CEM [2]): 3.9 µM
IC50 (K562): 7 µM
IC50 (U-937): 11.4 µM

Structure (SMILES): Cc1ccc(C2=NC(C)(O)CC(C(C)C)[Se]2)cc1 (stereo unspecified)
IC50 [1]: 1.5 µM

Structure (SMILES): COc1ccc2[nH]cc(CCNCC(C)C(=O)Nc3ccccc3)c2c1 (racemic)
IC50 (CCRF-CEM [2]): 9.16 µM
IC50 (K562): 37.5 µM
IC50 (U-937): > 50 µM

Structure (SMILES): O=S(=O)(c1ccc(Cl)cc1)C1(S(=O)(=O)c2ccc(Cl)cc2)CC1
IC50 [1]: 0.069 µM

Structure (SMILES): COc1ccc2[nH]cc(CCNCCC(=O)Nc3ccccc3N)c2c1
IC50 (CCRF-CEM [2]): 4.71 µM
IC50 (K562): 16.5 µM
IC50 (U-937): 11.2 µM

Structure (SMILES): COc1ccc2[nH]cc(CCNCCC(=O)Nc3ccc(C)cc3[N+](=O)[O-])c2c1
IC50 (CCRF-CEM [2]): 14.5 µM
IC50 (K562): 48.1 µM
IC50 (U-937): > 50 µM

— ChEMBL document CHEMBL5143689, “In silico, synthesis and anticancer evaluation of benzamide tryptamine derivatives as novel eEF2K inhibitors” (Bioorg Med Chem Lett, 2022)
